Measured values taken from publication PMC6021111, “Murine leukemia virus p12 tethers the capsid-containing pre-integration complex to chromatin by binding directly to host nucleosomes in mitosis” (PLoS Pathogens, 2018).

How the values were obtained:
[1] = test system: GST-p12_M63I phosphorylation in 293T cells; experiment: Kinase inhibition, GST-p12_M63I phosphorylation (PQ/SR); format: cell-based
Experimental: (§1) Glycogen synthase kinase 3 (GSK3) and cyclin-dependent kinase 5 (CDK5) were predicted to phosphorylate Mo-MLV p12 on S61, by the NetPhos 3.1 kinase prediction algorithm. […] These drugs were tested in our biochemical assays for their ability to reduce GST-p12_M63I phosphorylation and chromatin association. In our assays, cells transiently-expressing GST-p12_M63I were cultured in media containing nocodazole overnight, prior to the addition of the kinase inhibitors. […] After removal of the drugs, cells were immediately washed and lysed for glutathione-sepharose bead pull-down assays. The eluates from the beads were analysed by SDS-PAGE followed by sequential staining with PQ and SR dyes to quantify the phosphorylation levels of GST-p12_M63I. LiCl treatment had little effect on GST-p12_M63I phosphorylation (Fig 7A, lane 2). […] To correlate GST-p12_M63I phosphorylation with its ability to interact with chromatin, we quantified the amounts of H2B in the pull-down eluates by immunoblotting. […] The short period of kinase inhibition used in our assays, may have limited the effects observed on GST-p12_M63I phosphorylation.
(§2) GST-p12 proteins were expressed in 293T cells from pCAGGS/GST-derived plasmids by transient transfection using Turbofect (Thermo Fisher Scientific). Approximately 24 h after transfection, cells were changed into fresh media containing either 400 ng/ml nocodazole (Sigma) or 2 μg/ml aphidicolin (Sigma) and incubated overnight at 37°C. The synchronisation of the cell cultures after drug treatment was assessed by propidium iodide staining and cell cycle phase analysis by flow cytometry. Cells to be used in pull down assays were washed and lysed in 20 mM Tris pH 8.0, 300 mM NaCl, 1 mM EDTA, 10% Glycerol, 1% Triton X-100, protease inhibitors (Roche), phosphatase inhibitors (Merck). Lysis was facilitated by passing the lysates through a 19-gauge needle x7 and sonication, x7 pulses, 30 s ON and 30 s OFF, in an ice bath (Decon FS100). […] ProQ diamond and Sypro ruby staining (Thermo Fisher Scientific) of gels was visualised and quantified on a ChemiDoc imaging system (Bio-Rad). […]

[2] = test system: H2B precipitation with GST-p12_M63I, 293T cells; experiment: Kinase inhibition, H2B pull-down with GST-p12_M63I; format: cell-based; details: 3.5 h with nocodazole and 10 μM MG132, immunoblot
Experimental: as §1, §2

[3] = test system: Glycogen synthase kinase 3 (GSK3); details: cited from earlier work
GST-p12_WT = experiment: SILAC-MS of proteins enriched with GST-p12_WT relative to GST; format: binding, Mo-MLV; details: for SDs from the mean: log2(GST-p12_WT, Heavy/GST, Light)
From the text: To test whether GST-p12 was acting like the p12 region of Gag, we used a global proteomic approach based on stable isotope labelling by amino acids in cell culture (SILAC)-mass spectrometry (MS) to look for host proteins that interact with GST-p12 [35, 36]. A schematic diagram of the workflow is illustrated in Fig 4A. Briefly, GST, GST-p12_mut14 and GST-p12_WT were transiently-expressed in 293T cells cultured in light (R0/K0), medium (R6/K4) and heavy (R10/K8) SILAC media, respectively. Next, lysates of nocodazole treated transfected cells were prepared, normalised and used for parallel pull-down assays with glutathione-sepharose beads. The eluates from the beads were then pooled in a 1:1:1 ratio and subjected to LC-MS/MS analysis. The experiment was performed using biological replicates to test reproducibility of the mass-spec hits. The pull-down assays for this experiment were performed using mitotic cell lysates to facilitate identification of any potential chromatin interactions that were previously missed.
After removal of obvious contaminants (e.g. keratin) and non-quantified hits, 948 and 879 proteins were identified in replicates 1 and 2 (R1 and R2) of the experiment respectively (the false discovery rate (FDR) was set at 5%). To select proteins enriched in the heavy-labelled (H) GST-p12_WT sample relative to the light-labelled (L) GST sample, we compared the log2(H/L) silac ratios of the mass-spectrometry hits. When plotted as a frequency distribution, the log2(H/L) ratios of each replicate fitted well to a normal distribution curve (R^2 ≥ 0.98), allowing the mean and standard deviation to be accurately estimated (Fig 4B). In this experiment, contaminants/non-specifically bound cellular proteins were assumed to cluster around the mean of the distribution. […] Twenty one such proteins were identified in R1 and 22 identified in R2 (Fig 4B Venn diagram). […] These proteins were then ranked based on normalised abundance in the group. In mass-spectrometry analysis, larger proteins are in general assigned higher scores. Therefore, to control for protein size, we divided the number of peptide spectral matches identified for each protein with its length and then normalised the values across the group (Fig 4C and 4D). When ranked this way, the clathrin heavy chain (CLTC), clathrin interactor 1 (CLINT1) and NEDD4-like E3 ubiquitin ligase (WWP2) were identified as the top three hits. […] The function of clathrin in MLV infection is unclear. […] Thus, clathrin binding may be relevant to the early stages of MLV replication and should be investigated further.
For SILAC-MS experiments, 293T cells were grown is media containing light (R0K0, ^12C-Arginine and ^12C-Lysine), medium (R6K4, ^13C-Arginine and Lysine-4,4,5,5-d4) or heavy (R10K8, ^13C+^15N-Arginine and ^13C+^15N-Lysine) versions of L-Arginine and L-Lysine amino acids (Pierce) for a minimum of 6 doublings before transient expression of GST-p12 proteins. After performing the glutathione-sepharose pull-down assays equivalent volumes of the beads eluates were pooled and submitted to the Bristol University Proteomics Facility for RP nano-LC-MS/MS analysis. This analysis was performed on an LTQ-Orbitrap Velos mass spectrometer in line with a Dionex Ultimate 3000 nanoHPLC system as described in [53].
Supplementary file ppat.1007117.s005.xlsx: S1 Table Results from the first SILAC-MS analysis. GST, Mo-MLV GST-p12_mut14 or GST-p12_WT were transiently-expressed in 293T cells cultured in light (R0/K0), medium (R6/K4) and heavy (R10/K8) SILAC media, respectively. Mitotic cell lysates were subsequently used for glutathione-sepharose bead pull-down assays. Bead eluates were pooled in a 1:1:1 ratio and then analysed by LC-MS/MS. […] (XLSX) Click here for additional data file.

[4] = test system: nucleosome binding to immobilised p12 CTD peptides; experiment: BLI competition, nucleosome binding to immobilised p12 CTD peptides; details: soluble hCBS 100 μM
Experimental: To identify whether p12 binds to the same nucleosomal docking site as the CBS from PFV Gag, we then tested the ability of p12 CTD peptides to block the binding of nucleosomal arrays to hCBS and vice versa (Fig 9E and 9F).
The binding of PFV hCBS and p12 CTD peptides to recombinant H3.3 poly-nucleosomes (Active Motif) was measured using biolayer interferometry on an Octet RED system (Pall ForteBio Corp). The peptides were synthesised with a N-terminal biotin tag and GGGG linker. The Mo-MLV, FeLV and GaLV p12 CTD peptide sequences used are highlighted in bold in Fig 5C. A negative control was included that contained an R66A change in the Mo-MLV p12_M63I CTD peptide. Mo-MLV phos p12_M63I CTD was also synthesised with a phosphorylated S61 residue. The hCBS (positive control) sequence used corresponds to the CBS of PFV Gag ([…]). The biotinylated peptides were loaded onto streptavidin biosensors (Pall ForteBio Corp) at 0.5 μg/ml for 120 s in 10 mM HEPES pH 7.5, 150 mM NaCl, 0.005% (v/v) Tween 20. Following a buffer wash, the biosensors were incubated with serially-diluted nucleosome preparations (~0.5–250 nM) for 900–5400 s to measure association. Experiments were performed at 25°C and sample plates were agitated at 1000 rpm. Equilibrium binding amplitudes were determined by exponential least squares curve fitting of the association phase. The estimated binding amplitudes were then plotted against approximate nucleosome concentrations on GraphPad Prism 7. Equilibrium binding constant (Kd) and maximum specific binding (Bmax) were calculated by fitting the data to a non-linear regression model. Experiments were performed at least in duplicate and the data pooled for fitting. For competition assays, soluble non-biotin tagged peptides were added to the nucleosomal arrays at 100 μM to inhibit nucleosome binding prior to recording BLI measurements with biotinylated peptide immobilised on sensor probes. The non-biotin tagged peptide sequences were: hCBS—[…]; hCBS_L539A/R540A - […]; p12_WT—[…]; p12_R66A - […].

Compound	Normalised (PSMs/Length) (GST-p12_WT; Replicate 1)	PSMs (GST-p12_WT; Replicate 1)	PSMs/Length (GST-p12_WT; Replicate 1)	Normalised (PSMs/Length) (GST-p12_WT; Replicate 2)	PSMs (GST-p12_WT; Replicate 2)	PSMs/Length (GST-p12_WT; Replicate 2)	SDs from the mean (GST-p12_WT; Replicate 2)	SDs from the mean (GST-p12_WT; Replicate 1)	other results
[Cl-].[Li+] [LiCl]	–	–	–	–	–	–	–	–	effect on GST-p12_M63I phosphorylation ([1]; LiCl 40 mM, 3.5 h with nocodazole and 10 μM MG132): little effect; effect on chromatin pull down ([2]; LiCl 40 mM): no significant effect; inhibition of GSK3 [3]: shown to inhibit GSK3
NEDD4-like E3 ubiquitin-protein ligase WWP2: O00308	9.508	9	0.01034	9.262	9	0.01034	11.5377	–	–
NQGGYNLRPRTYQP [soluble hCBS, soluble non-biotin tagged hCBS peptide]	–	–	–	–	–	–	–	–	competition with binding of immobilised FeLV to nucleosomal arrays [4]: could compete with the binding; competition with binding of immobilised GaLV to nucleosomal arrays [4]: could compete with the binding; competition with binding of immobilised Mo-MLV p12_M63I to nucleosomal arrays [4]: could compete with the binding; competition with binding of immobilised Mo-MLV p12_WT to nucleosomal arrays [4]: could compete with the binding
Clathrin heavy chain 1: clathrin heavy chain, Q00610	49.383	90	0.05373	51.3165	96	0.05731	7.772	7.774	–
CC[C@H](CO)Nc1nc(NCc2ccccc2)c2ncn(C(C)C)c2n1 [roscovitine]	–	–	–	–	–	–	–	–	reduction of GST-p12_M63I phosphorylation by kinase inhibitor ([1]; 3.5 h with nocodazole and 10 μM MG132, LiCl 40 mM, roscovitine 75 μM, kenpaullone 40 μM): ~ 1.5 fold; reduction of H2B precipitation by kinase inhibitor ([2]; roscovitine 75 μM, kenpaullone 40 μM): ~ 1.5 fold
Protein transport protein Sec16A: F1T0I1	1.969	5	0.002142	1.918	5	0.002142	2.575	3.112	–
Inner centromere protein: cDNA FLJ31633, highly similar to this protein (fragment), B3KPD3	2.444	2	0.00266	1.191	1	0.00133	13.4521	6.525	–
Phosphatidylinositol-4-phosphate 3-kinase C2domain-containing alpha polypeptide: cDNA FLJ53905, highly similar to this protein, B4DG55	2.815	4	0.003063	6.17	9	0.006891	6.685	–	–
